From ChEMBL document CHEMBL5661955, “ASAP - In vitro cytotoxicity” (2024) come the findings set out here.

Where “and” joins values, the source holds several entries; their conditions need not be identical. Equal values may be shown once. Where only a bound is given, the exact number is not on record here.

Data set [1] is described as follows: Functional metabolic assay to measure dose dependent changes in cell viability from drug treatment in Vero E6/TMPRSS2 cells (cotreated with P-gp inhibitor, Elacridar). […] Cytotoxicity is reported via measuring absorbance and analysis of MTT/MTS assays in uninfected cells. The assay has been performed by Icahn School of Medicine at Mount Sinai. It counts as toxicity, cell-based, VeroE6/TMPRSS2. The note with it: chlorocebus sabaeus, p-gp concentration 2 uM. On the technique in general: Formazan colour is commonly taken as a measure of viable cells.

Data set [2] is described as follows: Functional assay to measure dose dependent changes in cell viability from drug treatment in Vero E6 miRFP670 cells (cotreated with P-gp inhibitor, CP100356) that are infected with Dengue virus type 2 New Guinea C. […] Cytotoxicity is reported via via analysis of DAPI count using high-content imager. The assay has been performed by KU Leuven. It counts as toxicity, cell-based, Vero C1008. The note with it: chlorocebus sabaeus, with CP100356 (P-gp inhibitor, concentration not stated); p-gp concentration 500 nM.

Where [3] appears, read: Vero E6/TMPRSS2 cells, with Elacridar (P-gp inhibitor, concentration not stated).

Regarding `C=CC[C@H](Nc1cc(Cl)cc(NC(=O)OCc2ccccc2)c1)c1cccc(-c2nn[nH]n2)c1`, in data set [1] (setting [3]), the CC50 is over 50 µM. Also, the CC10 in data set [1] (veroe6/tmprss2) was determined as 0.105 µM.

In the case of `O=C(O)Cn1ncc2cc(-c3cc(Cl)cc(NC(=O)OCc4ccccc4)c3)ccc21`, the CC50 in data set [2] is over 50 µM.

Consider `NCc1cccc(NC(=O)c2cc(Cl)cc(NC(=O)OCc3ccccc3)c2)c1`, for which the half-maximal cytotoxic concentration (CC50) in data set [1] (veroe6/tmprss2) is > 10 µM and 18.5 µM and 30.7 µM.

On to `NCc1cccc(CNC(=O)[C@@H](NC(=O)OCc2ccccc2)c2ccc(OCc3ccccc3)cc2)c1`, for which, in data set [2], the CC50 came out at 1.9 µM.

Regarding `O=C(Nc1cc(Cl)cc(C(=O)Nc2ccc3c(c2)CCNC3)c1)OCc1ccccc1`, in data set [2], the CC50 was 2.91 µM.

Turning to `C[C@@]1(O)[C@H](O)[C@@H](CO)O[C@H]1n1ccc(N)nc1=O`, in data set [2], the CC50 was over 200 µM.

Regarding `CCOc1cccc(-c2ccc(S(=O)(=O)Nc3ccc(Cl)cc3C(=O)O)cc2)c1`, in data set [1] (veroe6/tmprss2), the CC50 was over 50 µM.

`O=C(O)CCc1ccc(NC(=O)c2cc(Cl)cc(NC(=O)OCc3ccccc3)c2)cc1`: the CC50 in data set [1] (setting [3]) is over 50 µM. In addition, in data set [1] (veroe6/tmprss2), the CC10 is over 50 µM.

Consider `CNC(=O)[C@H](Nc1cc(Cl)cc(NC(=O)OCc2ccccc2)c1)c1cccc(-c2nn[nH]n2)c1`, for which, in data set [1] (setting [3]), the CC50 is over 50 µM. The CC10 in data set [1] (veroe6/tmprss2) was over 50 µM.

Take `O=C(Nc1cc(Cl)cc(C(=O)Nc2cc(-c3nnn[nH]3)ccc2F)c1)OCc1ccccc1`: in data set [1] (setting [3]), the CC50 is over 50 µM. Besides, the CC10 in data set [1] (veroe6/tmprss2) is over 50 µM.

Regarding `CC[C@H](Cc1nnn[nH]1)c1ccc(NC(=O)[C@H]2[C@H]3CCCCC[C@H]3[C@H]2NC(=O)OCc2ccccc2)cc1`, the CC50 in data set [1] (setting [3]) is over 50 µM. In addition, in data set [1] (veroe6/tmprss2), the CC10 is over 50 µM.

As for `N#Cc1cc(Cl)cc(C(=O)Nc2ccc3c(c2)CNC3)c1`, the CC50 in data set [1] (setting [3]) is over 50 µM. The CC10 in data set [1] (veroe6/tmprss2) is over 50 µM.

Regarding `CNC(=O)c1cc(Cl)c(F)cc1NS(=O)(=O)c1ccc(Oc2ccccc2Cl)cc1`, the CC50 in data set [2] was determined as 5.65 µM.

For `NCc1cccc(NC(=O)[C@H]2[C@H]3CCCCC[C@H]3[C@H]2NC(=O)OCc2ccccc2)c1`, in data set [1] (setting [3]), the CC50 is 10.3 µM. In addition, the CC10 in data set [1] (veroe6/tmprss2) came out at 0.166 µM.

On to `CCOc1cccc(-c2ccc(S(=O)(=O)Nc3cc4c(cc3C(=O)O)CCC4)cc2)c1`, for which the CC50 in data set [1] (setting [3]) is over 50 µM. Also, the CC10 in data set [1] (veroe6/tmprss2) amounted to 5.671 µM.

Take `O=C(Nc1cc(Cl)cc([C@H](C#CCO)Nc2ccc(-c3nn[nH]n3)cc2)c1)OCc1ccccc1`: the 50% cytotoxic concentration (CC50) in data set [2] is over 50 µM.

As for `NCc1ccc2c(c1)[C@H]1OCCC[C@H]1[C@H](c1cc(Cl)cc(NC(=O)OCc3ccccc3)c1)N2`, the CC50 in data set [2] came out at 5.8 µM.

On to `C=CC[C@H](Nc1cccc(-c2nn[nH]n2)c1)c1cc(Cl)cc2[nH]ncc12`, for which, in data set [1] (setting [3]), the CC50 was over 5 µM. In addition, the CC10 in data set [1] (veroe6/tmprss2) is over 5 µM.

Take `NCCCc1ccnc(NC(=O)c2cc(Cl)cc(NC(=O)OCc3ccccc3)c2)c1`: the CC50 in data set [1] (setting [3]) came to 16.2 µM. Moreover, the CC10 in data set [1] (veroe6/tmprss2) came out at 2.116 µM.

`O=S(=O)(Nc1cccc(-c2nnn[nH]2)c1)c1cc(Cl)cc(-c2ccccc2)c1`: the CC50 in data set [1] (setting [3]) was over 50 µM. For the same compound, the CC10 in data set [1] (veroe6/tmprss2) is over 50 µM.

`C[C@@H](N)c1cccc(NC(=O)[C@H]2[C@H]3CCCCC[C@H]3[C@H]2NC(=O)OCc2ccccc2)c1`: the CC50 in data set [1] (setting [3]) was over 50 µM. Besides, the CC10 in data set [1] (veroe6/tmprss2) was found to be 0.044 µM.

For the compound `O=C(Nc1cnc2c(c1)CNCC2)c1cc(Cl)cc2[nH]ncc12`, in data set [1] (setting [3]), the CC50 was over 50 µM. The CC10 in data set [1] (veroe6/tmprss2) is over 50 µM.

`O=C(Nc1cc(Cl)cc(N[C@H](C#CCO)c2ccc(-c3nn[nH]n3)cc2)c1)OCc1ccccc1`: the CC50 in data set [1] (setting [3]) is over 50 µM. Besides, the CC10 in data set [1] (veroe6/tmprss2) was over 50 µM.

For `NCc1cccc(NC(=O)c2cc(Cl)cc(CN)c2)c1`, the CC50 in data set [1] (veroe6/tmprss2) was over 50 µM.

On to `CCc1cc(Cl)cc(C(=O)Nc2ccc3c(c2)CNC3)c1`, for which the CC50 in data set [1] (setting [3]) is over 50 µM. Moreover, the CC10 in data set [1] (veroe6/tmprss2) stood at 10.908 µM.

As to `C=CC[C@H](Nc1cccc(-c2nn[nH]n2)c1)c1cc(Cl)cc(NC(=O)OCc2ccccc2)c1`, the CC50 in data set [2] was determined as 6.9 µM.

As to `O=C(Nc1cc(Cl)cc(CNc2cccc(-c3nn[nH]n3)c2)c1)OCc1ccccc1`, in data set [2], the CC50 was over 50 µM.

In the case of `Cc1ccc2cc(Cl)cc(C(=O)Nc3ccc4c(c3)CNC4)c2n1`, in data set [1] (setting [3]), the CC50 was 31.3 µM. The CC10 in data set [1] (veroe6/tmprss2) stood at 2.835 µM.

Turning to `Cc1ccc(S(=O)(=O)CNC(=O)[C@H](Nc2ccc3c(c2)CNC3)c2cc(Cl)cc3[nH]ncc23)cc1`, the CC50 in data set [1] (setting [3]) is over 50 µM. The CC10 in data set [1] (veroe6/tmprss2) is over 50 µM.

As to `NCc1cccc(NC(=O)c2cc(Cl)cc3c2CCC3)c1`, the CC50 in data set [1] (veroe6/tmprss2) is over 50 µM.

On to `CNC(=O)[C@H](Nc1cc(Cl)cc(NC(=O)OCc2ccccc2)c1)c1cccc(CN)c1`, for which, in data set [2], the CC50 amounted to 24.2 µM.

For the compound `Cc1ccc(-c2nnn[nH]2)cc1NC(=O)c1cc(Cl)cc(NC(=O)OCc2ccccc2)c1`, the CC50 in data set [1] (setting [3]) was over 50 µM. In data set [1] (veroe6/tmprss2), the CC10 is over 50 µM.

Regarding `O=C(Nc1ccc2c(c1)CNC2)c1cc(Cl)ccc1SC1CCCC1`, in data set [1] (setting [3]), the CC50 is over 50 µM. Further, in data set [1] (veroe6/tmprss2), the CC10 came out at 41.64 µM.

For `C=CC[C@H](Nc1cc(Cl)cc(NC(=O)OCc2ccccc2)c1)c1cccc(CN)c1`, in data set [2], the CC50 was 3.34 µM.

Consider `O=C(Nc1cc(Cl)cc(C(=O)Nc2cc(Br)cc(-c3nnn[nH]3)c2)c1)OCc1ccccc1`, for which the half-maximal cytotoxic concentration (CC50) in data set [1] (setting [3]) is over 50 µM. Also, the CC10 in data set [1] (veroe6/tmprss2) is over 50 µM.

Consider `CNC(=O)[C@H](Nc1cccc(CN)c1)c1cc(Cl)cc(NC(=O)OCc2ccccc2)c1`, for which the CC50 in data set [2] was determined as 23.7 µM.

With `CC(=Cc1cccc(CN)c1)c1cc(Cl)cc(NC(=O)OCc2ccccc2)c1`, in data set [2], the CC50 is 3.26 µM.

Take `NCc1cccc(NC(=O)c2cc(Cl)cc(N3CCCC3=O)c2)c1`: in data set [1] (veroe6/tmprss2), the CC50 is over 50 µM.

In the case of `c1ccc2c(CN3CCC(c4cscn4)CC3)c[nH]c2c1`, in data set [1] (veroe6/tmprss2), the CC50 was over 50 µM.

For the compound `O=C(Nc1ccc2c(c1)CNC2)c1cc(Br)cc2[nH]c(C3CCOCC3)nc12`, in data set [1] (setting [3]), the CC50 is 27.8 µM. Moreover, in data set [1] (veroe6/tmprss2), the CC10 amounted to 3.442 µM.

Regarding `NCc1ccc(F)c(NC(=O)c2cc(Cl)cc(NC(=O)OCc3ccccc3)c2)c1`, the CC50 in data set [1] (setting [3]) was over 50 µM. Also, in data set [1] (veroe6/tmprss2), the CC10 was over 50 µM.

In the case of `NCc1cccc(NC(=O)[C@@H](NC(=O)OCc2ccccc2)c2ccc(Br)c(Cl)c2)c1`, the CC50 in data set [1] (setting [3]) stood at 8.15 µM. Further, the CC10 in data set [1] (veroe6/tmprss2) was determined as 0.556 µM.

With `COc1ccc(CCNc2nc(N3CCc4cc(OC)c(OC)cc4C3)c3cc(OC)c(OC)cc3n2)cc1OC`, in data set [1] (veroe6/tmprss2), the CC10 is under 0.005 µM.

Turning to `NCc1ccc([C@H]2C[C@@H]2c2cc(Cl)cc(NC(=O)OCc3ccccc3)c2)cc1`, the CC50 in data set [2] stood at 3.51 µM.

As to `CC(=Cc1cc(Cl)cc(NC(=O)OCc2ccccc2)c1)c1cccc(CN)c1`, in data set [2], the cytotoxic concentration (CC50) worked out at 0.906 µM.

Regarding `N#C[C@H](Nc1cc(Cl)cc(NC(=O)OCc2ccccc2)c1)c1ccc(-c2nn[nH]n2)cc1`, the CC50 in data set [2] is 13 µM.

Consider `N[C@H]1CC[C@H](c2ccc(NC(=O)c3cc(Cl)cc(NC(=O)OCc4ccccc4)c3)cc2)C1`, for which the CC50 in data set [2] stood at 2.84 µM.

For `CN(C)C(=O)c1cc(CN)cc([C@@H]2C[C@H]2c2cc(Cl)cc(NC(=O)OCc3ccccc3)c2)c1`, the CC50 in data set [2] worked out at 4.09 µM.

Consider `O=C(Nc1cc(Cl)cc(C(=O)Nc2ccc([C@@H]3C[C@H]3C(=O)O)cc2)c1)OCc1ccccc1`, for which the CC50 in data set [2] is 21.1 µM.

With `O=C(Nc1cc(Cl)cc([C@H]2C[C@@H]2c2cccc(-c3nnn[nH]3)c2)c1)OCc1ccccc1`, the CC50 in data set [2] worked out at 16.3 µM.

Consider `CCCCCC(=O)N[C@H](C(=O)NCc1ccc(N)nc1)c1ccc(OCc2ccccc2)cc1`, for which the CC50 in data set [2] was found to be 3.63 µM.

For `Clc1cccc([C@H](C#Cc2ccccc2)Nc2cccc(-c3nn[nH]n3)c2)c1`, the CC50 in data set [2] amounted to 6.84 µM.

As usually defined, the CC50 is the concentration giving 50% cytotoxicity.
